# Experimental data: patent publication US20070208005A1, “TETRAHYDROBENZAZEPINES AS ANTAGONISTS AND/OR REVERSE AGONISTS OF THE HISTAMINE H3 RECEPTOR” (priority 2004, published 2007)
# Target: T1, histamine H3 receptor (Homo sapiens, UniProt Q9Y5N1)
# T1 construct: expressed in transfected cells; host or cells: CHO K1 cells (pSwitch/pGene GeneSwitch system, mifepristone-induced), clone 3H3; membranes
# Test: Histamine H3 functional antagonist assay ([35S]-GTPγS SPA on membranes of H3 cells)
# Type: biochemical
# Conditions: membrane prepared from cultured H3 cells (CHO K1, human H3); histamine at EC80; averages of a number of experiments; read-out: functional pKi (fpKi), H3 functional antagonist assay (converted)
# Text: A membrane preparation containing histamine H3 receptors may be prepared in accordance with the following procedures:
# (i) Generation of Histamine H3 Cell Line
# DNA encoding the human histamine H3 gene (Huvar, A. et al. (1999) Mol. Pharmacol. 55(6), 1101-1107) was cloned into a holding vector, pcDNA3.1 TOPO (InVitrogen) and its cDNA was isolated from this vector by restriction digestion of plasmid DNA with the enzymes BamH1 and Not-1 and ligated into the inducible expression vector pGene (InVitrogen) digested with the same enzymes. The GeneSwitch™ system (a system where in transgene expression is switched off in the absence of an inducer and switched on in the presence of an inducer) was performed as described in U.S. Pat. Nos. 5,364,791; 5,874,534; and 5,935,934. Ligated DNA was transformed into competent DH5α E. coli host bacterial cells and plated onto Luria Broth (LB) agar containing Zeocin™ (an antibiotic which allows the selection of cells expressing the sh ble gene which is present on pGene and pSwitch) at 50 μg ml^−1. Colonies containing the re-ligated plasmid were identified by restriction analysis. DNA for transfection into mammalian cells was prepared from 250 ml cultures of the host bacterium containing the pGeneH3 plasmid and isolated using a DNA preparation kit (Qiagen Midi-Prep) as per manufacturers guidelines (Qiagen). CHO K1 cells previously transfected with the pSwitch regulatory plasmid (InVitrogen) were seeded at 2×10e6 cells per T75 flask in Complete Medium, containing Hams F12 (GIBCOBRL, Life Technologies) medium supplemented with 10% v/v dialysed foetal bovine serum, L-glutamine, and hygromycin (100 μg ml^−1), 24 hours prior to use. Plasmid DNA was transfected into the cells using Lipofectamine plus according to the manufacturers guidelines (InVitrogen). 48 hours post transfection cells were placed into complete medium supplemented with 500 μg ml^−1 Zeocin™.
# 10-14 days post selection 10 nM Mifepristone (InVitrogen), was added to the culture medium to induce the expression of the receptor. 18 hours post induction cells were detached from the flask using ethylenediamine tetra-acetic acid (EDTA; 1:5000; InVitrogen), following several washes with phosphate buffered saline pH 7.4 and resuspended in Sorting Medium containing Minimum Essential Medium (MEM), without phenol red, and supplemented with Earles salts and 3% Foetal Clone II (Hyclone). Approximately 1×10e7 cells were examined for receptor expression by staining with a rabbit polyclonal antibody, 4a, raised against the N-terminal domain of the histamine H3 receptor, incubated on ice for 60 minutes, followed by two washes in sorting medium. Receptor bound antibody was detected by incubation of the cells for 60 minutes on ice with a goat anti rabbit antibody, conjugated with Alexa 488 fluorescence marker (Molecular Probes). Following two further washes with Sorting Medium, cells were filtered through a 50 μm Filcon™ (BD Biosciences) and then analysed on a FACS Vantage SE Flow Cytometer fitted with an Automatic Cell Deposition Unit. Control cells were non-induced cells treated in a similar manner. Positively stained cells were sorted as single cells into 96-well plates, containing Complete Medium containing 500 μg ml^−1 Zeocin™ and allowed to expand before reanalysis for receptor expression via antibody and ligand binding studies. One clone, 3H3, was selected for membrane preparation.
# (ii) Membrane Preparation from Cultured Cells
# All steps of the protocol are carried out at 4° C. and with pre-cooled reagents. The cell pellet is resuspended in 10 volumes of homogenisation buffer (50 mM N-2-hydroxyethylpiperazine-N′-2-ethanesulfonic acid (HEPES), 1 mM ethylenediamine tetra-acetic acid (EDTA), pH 7.4 with KOH, supplemented with 10e-6M leupeptin (acetyl-leucyl-leucyl-arginal; Sigma L2884), 25 μg/ml bacitracin (Sigma B0125), 1 mM phenylmethylsulfonyl fluoride (PMSF) and 2×10e-6M pepstain A (Sigma)). […]
# T1 sequence (Q9Y5N1 whole entry): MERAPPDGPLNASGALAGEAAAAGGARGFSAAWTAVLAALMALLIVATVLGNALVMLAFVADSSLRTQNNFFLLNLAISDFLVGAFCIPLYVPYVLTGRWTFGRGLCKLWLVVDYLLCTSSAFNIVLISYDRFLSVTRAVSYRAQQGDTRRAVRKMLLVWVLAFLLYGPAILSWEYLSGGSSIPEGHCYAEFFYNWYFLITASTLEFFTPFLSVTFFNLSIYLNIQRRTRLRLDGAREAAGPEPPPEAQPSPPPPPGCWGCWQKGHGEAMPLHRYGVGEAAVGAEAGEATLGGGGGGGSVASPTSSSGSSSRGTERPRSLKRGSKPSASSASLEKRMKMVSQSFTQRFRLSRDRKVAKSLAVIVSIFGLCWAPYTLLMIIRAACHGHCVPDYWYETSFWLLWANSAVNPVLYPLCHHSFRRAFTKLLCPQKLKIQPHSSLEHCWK
row,SMILES,Ki [nM]
1,"N#Cc1ccc(Cc2ccc3c(c2)CCN(C2CCC2)CC3)cn1 [Example E12, 5-[(3-Cyclobutyl-2,3,4,5-tetrahydro-1H-3-benzazepin-7-yl)methyl]-2-pyridinecarbonitrile]",< 3.16
2,"Cc1noc(-c2ccc(Cc3ccc4c(c3)CCN(C3CCC3)CC4)cc2)n1 [Example E13, 3-Cyclobutyl-7-{[4-(3-methyl-1,2,4-oxadiazol-5-yl)phenyl]methyl}-2,3,4,5-tetrahydro-1H-3-benzazepine]",< 0.316
3,"Cc1noc(-c2ccc(Cc3ccc4c(c3)CCN(C3CCC3)CC4)cn2)n1 [Example E14, 3-Cyclobutyl-7-{[6-(3-methyl-1,2,4-oxadiazol-5-yl)-3-pyridinyl]methyl}-2,3,4,5-tetrahydro-1H-3-benzazepine]",< 3.16
4,"Cc1noc(-c2cnc(Cc3ccc4c(c3)CCN(C3CCC3)CC4)cn2)n1 [Example E15, 3-Cyclobutyl-7-{[5-(3-methyl-1,2,4-oxadiazol-5-yl)-2-pyrazinyl]methyl}-2,3,4,5-tetrahydro-1H-3-benzazepine]",< 3.16
5,"Cc1noc(-c2ccc(Cc3ccc4c(c3)CCN(C3CCC3)CC4)nc2)n1 [Example E16, 3-Cyclobutyl-7-{[5-(3-methyl-1,2,4-oxadiazol-5-yl)-2-pyridinyl]methyl}-2,3,4,5-tetrahydro-1H-3-benzazepine]",< 3.16
6,"CN(C)C(=O)c1ccc(Cc2ccc3c(c2)CCN(C2CCC2)CC3)cc1 [Example E17, 4-[(3-Cyclobutyl-2,3,4,5-tetrahydro-1H-3-benzazepin-7-yl)methyl]-N,N-dimethylbenzamide]",< 3.16
7,"O=C(c1cnc(Cc2ccc3c(c2)CCN(C2CCC2)CC3)cn1)N1CCCC1 [Example E20, 3-Cyclobutyl-7-{[5-(1-pyrrolidinylcarbonyl)-2-pyrazinyl]methyl}-2,3,4,5-tetrahydro-1H-3-benzazepine]",< 3.16
8,"CC(C)NC(=O)c1cnc(Cc2ccc3c(c2)CCN(C2CCC2)CC3)cn1 [Example E21, 5-[(3-Cyclobutyl-2,3,4,5-tetrahydro-1H-3-benzazepin-7-yl)methyl]-N-(1-methylethyl)-2-pyrazinecarboxamide]",< 3.16
9,"CN(C)C(=O)c1cnc(Cc2ccc3c(c2)CCN(C2CCC2)CC3)cn1 [Example E22, 5-[(3-Cyclobutyl-2,3,4,5-tetrahydro-1H-3-benzazepin-7-yl)methyl]-N,N-dimethyl-2-pyrazinecarboxamide]",< 3.16
10,"O=C(NCC(F)(F)F)c1cnc(Cc2ccc3c(c2)CCN(C2CCC2)CC3)cn1 [Example E23, 5-[(3-Cyclobutyl-2,3,4,5-tetrahydro-1H-3-benzazepin-7-yl)methyl]-N-(2,2,2-trifluoroethyl)-2-pyrazinecarboxamide]",< 3.16
11,"N#CCNC(=O)c1cnc(Cc2ccc3c(c2)CCN(C2CCC2)CC3)cn1 [Example E24, N-(Cyanomethyl)-5-[(3-cyclobutyl-2,3,4,5-tetrahydro-1H-3-benzazepin-7-yl)methyl]-2-pyrazinecarboxamide]",< 3.16
12,"CNC(=O)c1ccc(Cc2ccc3c(c2)CCN(C2CCC2)CC3)cn1 [Example E26, 5-[(3-Cyclobutyl-2,3,4,5-tetrahydro-1H-3-benzazepin-7-yl)methyl]-N-methyl-2-pyridinecarboxamide]",< 3.16
13,"NC(=O)c1ccc(Cc2ccc3c(c2)CCN(C2CCC2)CC3)cn1 [Example E27, 5-[(3-Cyclobutyl-2,3,4,5-tetrahydro-1H-3-benzazepin-7-yl)methyl]-2-pyridinecarboxamide]",< 3.16
14,"c1cnc(Cc2ccc3c(c2)CCN(C2CCC2)CC3)cn1 [Example E30, 3-Cyclobutyl-7-(2-pyrazinylmethyl)-2,3,4,5-tetrahydro-1H-3-benzazepine]",< 3.16
15,"CC(=O)Nc1cnc(Cc2ccc3c(c2)CCN(C2CCC2)CC3)cn1 [Example E32, N-{5-[(3-Cyclobutyl-2,3,4,5-tetrahydro-1H-3-benzazepin-7-yl)methyl]-2-pyrazinyl}acetamide]",< 3.16
16,"CNC(=O)c1cnc(Cc2ccc3c(c2)CCN(C2CCC2)CC3)cn1 [Example E33, 5-[(3-Cyclobutyl-2,3,4,5-tetrahydro-1H-3-benzazepin-7-yl)methyl]-N-methyl-2-pyrazinecarboxamide]",< 0.316
17,"CCNC(=O)c1cnc(Cc2ccc3c(c2)CCN(C2CCC2)CC3)cn1 [Example E34, 5-[(3-Cyclobutyl-2,3,4,5-tetrahydro-1H-3-benzazepin-7-yl)methyl]-N-ethyl-2-pyrazinecarboxamide]",< 3.16
18,"CNC(=O)c1cnc(Cc2ccc3c(c2)CCN(C2CCCC2)CC3)cn1 [Example E35, 5-[(3-Cyclopentyl-2,3,4,5-tetrahydro-1H-3-benzazepin-7-yl)methyl]-N-methyl-2-pyrazinecarboxamide]",< 3.16
19,"O=C1OCCN1c1ccc(Cc2ccc3c(c2)CCN(C2CCC2)CC3)cn1 [Example E39, 3-{5-[(3-Cyclobutyl-2,3,4,5-tetrahydro-1H-3-benzazepin-7-yl)methyl]-2-pyridinyl}-1,3-oxazolidin-2-one]",< 3.16

# More lines, now with the values ahead:
row,Ki [nM],SMILES
1,< 0.316,"N#Cc1ccc(Cc2ccc3c(c2)CCN(C2CCC2)CC3)cc1 [Example E1, 4-[(3-Cyclobutyl-2,3,4,5-tetrahydro-1H-3-benzazepin-7-yl)methyl]benzonitrile]"
2,< 3.16,"O=C1CCCN1c1ccc(Cc2ccc3c(c2)CCN(C2CCC2)CC3)nc1 [Example E5, 1-{6-[(3-cyclobutyl-2,3,4,5-tetrahydro-1H-3-benzazepin-7-yl)methyl]-3-pyridinyl}-2-pyrrolidinone]"
3,< 3.16,"O=C(c1ccc(Cc2ccc3c(c2)CCN(C2CCC2)CC3)cc1)N1CCCCC1 [Example E18, 3-Cyclobutyl-7-{[4-(1-piperidinylcarbonyl)phenyl]methyl}-2,3,4,5-tetrahydro-1H-3-benzazepine]"
4,< 3.16,"O=C(c1ccc(Cc2ccc3c(c2)CCN(C2CCC2)CC3)cc1)N1CCOCC1 [Example E19, 3-Cyclobutyl-7-{[4-(4-morpholinylcarbonyl)phenyl]methyl}-2,3,4,5-tetrahydro-1H-3-benzazepine]"
5,< 3.16,"O=C1CCCN1c1ccc(Cc2ccc3c(c2)CCN(C2CCC2)CC3)cc1 [Example E28, 1-{4-[(3-Cyclobutyl-2,3,4,5-tetrahydro-1H-3-benzazepin-7-yl)methyl]phenyl}-2-pyrrolidinone]"
6,< 3.16,"O=C1CCCN1c1ccc(Cc2ccc3c(c2)CCN(C2CCC2)CC3)cn1 [Example E29, 1-{5-[(3-Cyclobutyl-2,3,4,5-tetrahydro-1H-3-benzazepin-7-yl)methyl]-2-pyridinyl}-2-pyrrolidinone]"
7,< 0.316,"O=C1CCCN1c1cnc(Cc2ccc3c(c2)CCN(C2CCC2)CC3)cn1 [Example E31, 1-{5-[(3-Cyclobutyl-2,3,4,5-tetrahydro-1H-3-benzazepin-7-yl)methyl]-2-pyrazinyl}-2-pyrrolidinone]"
8,< 3.16,"O=C1CCCN1c1ccc(Cc2ccc3c(c2)CCN(C2CCCC2)CC3)cc1 [Example E36, 1-{4-[(3-Cyclopentyl-2,3,4,5-tetrahydro-1H-3-benzazepin-7-yl)methyl]phenyl}-2-pyrrolidinone]"
9,< 3.16,"O=C1CCCN1c1ccc(Cc2ccc3c(c2)CCN(C2CCCC2)CC3)cn1 [Example E37, 1-{5-[(3-cyclopentyl-2,3,4,5-tetrahydro-1H-3-benzazepin-7-yl)methyl]-2-pyridinyl}-2-pyrrolidinone]"
